From patent US20150105252A1, “SUBSTITUTED PYRAZOLES AS HERBICIDES” (E I DU PONT DE NEMOURS AND COMPANY, priority 2013, published 2015)

Experiments:
blackgrass = test: Test D preemergence; type: in vivo, Alopecurus myosuroides; details: for Plant response rating, Blackgrass: Preemergence, scale 0 to 100
Text: (§1) Seeds of plant species selected from bluegrass (annual bluegrass, Poa annua), blackgrass (Alopecurus myosuroides), canarygrass (littleseed canarygrass, Phalaris minor), chickweed (common chickweed, Stellaria media), galium (catchweed bedstraw, Galium aparine), bromegrass, downy (downy bromegrass, Bromus tectorum), field poppy (Papaver rhoeas), field violet (Viola arvensis), foxtail, green (green foxtail, Setaria viridis), deadnettle (henbit deadnettle, Lamium amplexicaule), ryegrass, Italian (Italian ryegrass, Lolium multiflorum), kochia (Kochia scoparia), lambsquarters (Chenopodium album), oilseed rape (Brassica napus), pigweed (redroot pigweed, Amaranthus retroflexus), chamomile (scentless chamomile, Matricaria inodora), speedwell (bird's-eye speedwell, Veronica persica), barley, spring (spring barley, Hordeum vulgare), wheat, spring (spring wheat, Triticum aestivum), buckwheat, wild (wild buckwheat, Polygonum convolvulus), mustard, wild (wild mustard, Sinapis arvensis), oat, wild (wild oat, Avena fatua), radish, wild (wild radish, Raphanus raphanistrum), windgrass (Apera spica-venti), Russian thistle (Salsola kali), barley, winter (winter barley, Hordeum vulgare), and wheat, winter (winter wheat, Triticum aestivum) were planted into a silt loam soil and treated preemergence with test chemicals formulated in a non-phytotoxic solvent mixture which included a surfactant.
(§2) At the same time, these species were planted in pots containing Redi-Earth® planting medium (Scotts Company, 14111 Scottslawn Road, Marysville, Ohio 43041) comprising spaghnum peat moss, vermiculite, wetting agent and starter nutrients and treated with postemergence applications of the test chemicals formulated in the same manner. Plants ranged in height from 2 to 18 cm (1- to 4-leaf stage). Treated plants and controls were maintained in a controlled growth environment for 14 to 21 days after which time all species were compared to controls and visually evaluated. Plant response ratings, summarized in Table D, are based on a scale of 0 to 100 where 0 is no effect and 100 is complete control. A dash (-) response means no test result.

bromegrass, downy [1] = test: Test D preemergence; type: in vivo, Bromus tectorum; details: for Plant response rating, Bromegrass, Downy: Preemergence, scale 0 to 100
Text: as §1, §2

kochia = test: Test D preemergence; type: in vivo, Kochia scoparia; details: for Plant response rating, Kochia: Preemergence, scale 0 to 100
Text: as §1, §2

lambsquarters [2] = test: Test D preemergence; type: in vivo, Chenopodium album; details: for Plant response rating, Lambsquarters: Preemergence, scale 0 to 100
Text: as §1, §2

chamomile [3] = test: Test D preemergence; type: in vivo, Matricaria inodora; details: for Plant response rating, Chamomile: Preemergence, scale 0 to 100
Text: as §1, §2

oat, wild [4] = test: Test D preemergence; type: in vivo, Avena fatua; details: for Plant response rating, Oat, Wild: Preemergence, scale 0 to 100
Text: as §1, §2

bluegrass = test: Test D postemergence; type: in vivo, Poa annua; details: scale 0 to 100
Text: as §1, §2

canarygrass = test: Test D postemergence; type: in vivo, Phalaris minor; details: scale 0 to 100
Text: as §1, §2

bromegrass, downy [5] = test: Test D postemergence; type: in vivo, Bromus tectorum; details: scale 0 to 100
Text: as §1, §2

field poppy = test: Test D postemergence; type: in vivo, Papaver rhoeas; details: scale 0 to 100
Text: as §1, §2

field violet = test: Test D postemergence; type: in vivo, Viola arvensis; details: scale 0 to 100
Text: as §1, §2

lambsquarters [6] = test: Test D postemergence; type: in vivo, Chenopodium album; details: scale 0 to 100
Text: as §1, §2

oilseed rape = test: Test D postemergence; type: in vivo, Brassica napus; details: scale 0 to 100
Text: as §1, §2

chamomile [7] = test: Test D postemergence; type: in vivo, Matricaria inodora; details: scale 0 to 100
Text: as §1, §2

speedwell = test: Test D postemergence; type: in vivo, Veronica persica; details: scale 0 to 100
Text: as §1, §2

mustard, wild = test: Test D postemergence; type: in vivo, Sinapis arvensis; details: scale 0 to 100
Text: as §1, §2

oat, wild [8] = test: Test D postemergence; type: in vivo, Avena fatua; details: scale 0 to 100
Text: as §1, §2

windgrass = test: Test D postemergence; type: in vivo, Apera spica-venti; details: scale 0 to 100
Text: as §1, §2

[9] = 16 g ai/ha, taken as preemergence

Cc1cc(C(=O)NCC(F)(F)F)nn1Cc1ccnc(C(F)(F)F)c1 [Compound 74]
Plant response rating (scale 0 to 100), Blackgrass (blackgrass; [9]): 0 | Plant response rating, Blackgrass (blackgrass; 31 g ai/ha): 0 | Plant response rating, Blackgrass (blackgrass; 62 g ai/ha): 10 | Plant response rating, Blackgrass (blackgrass; 125 g ai/ha): 15 | Plant response rating (scale 0 to 100), Bromegrass, Downy (bromegrass, downy [1]; [9]): 0 | Plant response rating, Bromegrass, Downy (bromegrass, downy [1]; 31 g ai/ha): 0 | Plant response rating, Bromegrass, Downy (bromegrass, downy [1]; 62 g ai/ha): 5 | Plant response rating, Bromegrass, Downy (bromegrass, downy [1]; 125 g ai/ha): 0 | Plant response rating (scale 0 to 100), Kochia (kochia; [9]): 50 | Plant response rating, Kochia (kochia; 31 g ai/ha): 85 | Plant response rating, Kochia (kochia; 62 g ai/ha): 100 | Plant response rating, Kochia (kochia; 125 g ai/ha): 100 | Plant response rating (scale 0 to 100), Lambsquarters (lambsquarters [2]; [9]): 20 | Plant response rating, Lambsquarters (lambsquarters [2]; 31 g ai/ha): 50 | Plant response rating, Lambsquarters (lambsquarters [2]; 62 g ai/ha): 20 | Plant response rating, Lambsquarters (lambsquarters [2]; 125 g ai/ha): 85 | Plant response rating (scale 0 to 100), Chamomile (chamomile [3]; [9]): 20 | Plant response rating, Chamomile (chamomile [3]; 31 g ai/ha): 60 | Plant response rating, Chamomile (chamomile [3]; 62 g ai/ha): 80 | Plant response rating, Chamomile (chamomile [3]; 125 g ai/ha): 90 | Plant response rating (scale 0 to 100), Oat, Wild (oat, wild [4]; [9]): 20 | Plant response rating, Oat, Wild (oat, wild [4]; 31 g ai/ha): 10 | Plant response rating, Oat, Wild (oat, wild [4]; 62 g ai/ha): 10 | Plant response rating, Oat, Wild (oat, wild [4]; 125 g ai/ha): 30 | Plant response rating, Bluegrass (bluegrass; Postemergence, 16 g ai/ha): 5 | Bluegrass plant response rating (bluegrass; Postemergence, 31 g ai/ha): 5 | Bluegrass plant response rating (bluegrass; Postemergence, 125 g ai/ha): 5 | Bluegrass plant response rating (bluegrass; postemergence, 62 g ai/ha): 5 | Plant response rating, Canarygrass (canarygrass; Postemergence, 16 g ai/ha): 0 | Canarygrass plant response rating (canarygrass; Postemergence, 31 g ai/ha): 0 | Canarygrass plant response rating (canarygrass; Postemergence, 125 g ai/ha): 0 | Canarygrass plant response rating (canarygrass; postemergence, 62 g ai/ha): 0 | Plant response rating, Bromegrass, Downy (bromegrass, downy [5]; Postemergence, 16 g ai/ha): 0 | Bromegrass, Downy plant response rating (bromegrass, downy [5]; Postemergence, 31 g ai/ha): 0 | Bromegrass, Downy plant response rating (bromegrass, downy [5]; Postemergence, 125 g ai/ha): 0 | Bromegrass, Downy plant response rating (bromegrass, downy [5]; postemergence, 62 g ai/ha): 0 | Plant response rating, Field Poppy (field poppy; Postemergence, 16 g ai/ha): 10 | Field Poppy plant response rating (field poppy; Postemergence, 31 g ai/ha): 75 | Field Poppy plant response rating (field poppy; Postemergence, 125 g ai/ha): 20 | Field Poppy plant response rating (field poppy; postemergence, 62 g ai/ha): 30 | Plant response rating, Field Violet (field violet; Postemergence, 16 g ai/ha): 25 | Field Violet plant response rating (field violet; Postemergence, 31 g ai/ha): 30 | Field Violet plant response rating (field violet; Postemergence, 125 g ai/ha): 50 | Field Violet plant response rating (field violet; postemergence, 62 g ai/ha): 60 | Plant response rating, Lambsquarters (lambsquarters [6]; Postemergence, 16 g ai/ha): 70 | Lambsquarters plant response rating (lambsquarters [6]; Postemergence, 31 g ai/ha): 70 | Lambsquarters plant response rating (lambsquarters [6]; Postemergence, 125 g ai/ha): 85 | Lambsquarters plant response rating (lambsquarters [6]; postemergence, 62 g ai/ha): 75 | Plant response rating, Oilseed Rape (oilseed rape; Postemergence, 16 g ai/ha): 15 | Oilseed Rape plant response rating (oilseed rape; Postemergence, 31 g ai/ha): 20 | Oilseed Rape plant response rating (oilseed rape; Postemergence, 125 g ai/ha): 35 | Oilseed Rape plant response rating (oilseed rape; postemergence, 62 g ai/ha): 25 | Plant response rating, Chamomile (chamomile [7]; Postemergence, 16 g ai/ha): 15 | Chamomile plant response rating (chamomile [7]; Postemergence, 31 g ai/ha): 15 | Chamomile plant response rating (chamomile [7]; Postemergence, 125 g ai/ha): 50 | Chamomile plant response rating (chamomile [7]; postemergence, 62 g ai/ha): 20 | Plant response rating, Speedwell (speedwell; Postemergence, 16 g ai/ha): 75 | Speedwell plant response rating (speedwell; Postemergence, 31 g ai/ha): 60 | Speedwell plant response rating (speedwell; Postemergence, 125 g ai/ha): 75 | Speedwell plant response rating (speedwell; postemergence, 62 g ai/ha): 70 | Plant response rating, Mustard, Wild (mustard, wild; Postemergence, 16 g ai/ha): 20 | Mustard, Wild plant response rating (mustard, wild; Postemergence, 31 g ai/ha): 30 | Mustard, Wild plant response rating (mustard, wild; Postemergence, 125 g ai/ha): 55 | Mustard, Wild plant response rating (mustard, wild; postemergence, 62 g ai/ha): 30 | Plant response rating, Oat, Wild (oat, wild [8]; Postemergence, 16 g ai/ha): 0 | Oat, Wild plant response rating (oat, wild [8]; Postemergence, 31 g ai/ha): 5 | Oat, Wild plant response rating (oat, wild [8]; Postemergence, 125 g ai/ha): 5 | Oat, Wild plant response rating (oat, wild [8]; postemergence, 62 g ai/ha): 5 | Plant response rating, Windgrass (windgrass; Postemergence, 16 g ai/ha): 0 | Windgrass plant response rating (windgrass; Postemergence, 31 g ai/ha): 0 | Windgrass plant response rating (windgrass; Postemergence, 125 g ai/ha): 5 | Windgrass plant response rating (windgrass; postemergence, 62 g ai/ha): 0
